Biological target: T1, SepSecS (Homo sapiens, UniProt Q9HD40)
T1 sequence (Q9HD40 1-501): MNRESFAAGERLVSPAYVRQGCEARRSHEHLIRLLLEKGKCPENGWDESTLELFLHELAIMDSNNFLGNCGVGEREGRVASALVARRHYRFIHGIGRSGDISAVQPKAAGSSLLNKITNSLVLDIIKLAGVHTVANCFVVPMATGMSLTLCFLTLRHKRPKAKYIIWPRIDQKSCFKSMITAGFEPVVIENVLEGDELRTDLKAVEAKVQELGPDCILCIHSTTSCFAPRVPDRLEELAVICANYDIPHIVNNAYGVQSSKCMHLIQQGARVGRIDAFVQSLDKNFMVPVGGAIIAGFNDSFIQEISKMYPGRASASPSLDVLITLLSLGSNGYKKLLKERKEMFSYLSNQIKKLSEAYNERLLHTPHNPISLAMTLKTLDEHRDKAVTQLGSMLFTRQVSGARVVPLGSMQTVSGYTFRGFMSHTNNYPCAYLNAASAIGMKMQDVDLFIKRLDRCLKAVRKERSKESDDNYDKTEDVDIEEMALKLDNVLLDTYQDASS
Assay: X-ray crystallography, […] A
Assay type: binding
Details: covalent; Schiff base (internal aldimine) with Lys284

SMILES: Cc1ncc(COP(=O)(O)O)c(C=O)c1O [PLP, pyridoxal phosphate]
- X-ray crystallography, 2.8 A: Each SepSecS monomer has a PLP cofactor covalently linked to the Nε-amino group

Source: publication PMC2857584 (Science (New York, N.Y.), 2009)
